Test results from the supplement of paper PMC10307832.

Tests used:
Assay in all cases: relative viability (nuclei count vs DMSO), 5 days (fraction); higher = more cells survive
[1] = compound: O[C@H]1CC[C@H](Nc2ncc3nc(Nc4c(F)cc(F)cc4F)n([C@H]4CCOC4)c3n2)CC1 [Tanzisertib] + CS(=O)(=O)CCNCc1ccc(-c2ccc3ncnc(Nc4ccc(OCc5cccc(F)c5)c(Cl)c4)c3c2)o1 [Lapatinib] (partner 2 µM)
How it was run: (§1)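 Lung cancer cell lines were pin-tool dosed in 1536-well plates on the day after seeding, with either a lone drug or a fixed anchor-drug dose plus five library-drug doses (not always all listed) in √10 steps. Nuclei were counted on 4× images after 5 days. Relative viability is the ratio of treated-well to vehicle-well nuclei counts, with each value a median of duplicate plates.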

[2] = compound: C[C@@H](N)c1ccc(C(=O)Nc2ccnc3[nH]ccc23)cc1 + Cc1nc(NC(=O)N2CCC[C@H]2C(N)=O)sc1-c1ccnc(C(C)(C)C(F)(F)F)c1 [Alpelisib] (partner 2 µM)
How it was run: as §1

[3] = compound: C1CNCCC1C2=CC(=NN2)C3=CC=NC=C3 + Nc1ncn([C@H]2C[C@H](O)[C@@H](CO)O2)c(=O)n1 [Decitabine] (partner 2 µM)
How it was run: as §1

[4] = compound: C1CNCCC1C2=CC(=NN2)C3=CC=NC=C3 + N=C(N)NC(=N)NCCc1ccccc1 [Phenformin] (partner 250 µM)
How it was run: as §1

For COR-L23, the relative viability ([1]; first compound 0.08 µM) was 1.12, the relative viability ([1]; first compound 0.253 µM) was 0.954 and the relative viability ([1]; first compound 0.8 µM) was 0.961. The relative viability ([1]; first compound 2.53 µM) was 1.07, the relative viability ([1]; first compound 8 µM) was 0.98 and the relative viability ([2]; first compound 0.04 µM) was 0.699. For the same cell line, the relative viability ([2]; first compound 0.1265 µM) was 0.788, the relative viability ([2]; first compound 0.4 µM) was 0.921 and the relative viability ([2]; first compound 1.265 µM) was 0.801. For the same cell line, the relative viability ([2]; first compound 4 µM) was 0.381, the relative viability ([3]; first compound 0.08 µM) was 0.424 and the relative viability ([3]; first compound 0.8 µM) was 0.429. For the same cell line, the relative viability ([3]; first compound 2.53 µM) was 0.516, the relative viability ([3]; first compound 8 µM) was 0.47 and the relative viability ([4]; first compound 0.08 µM) was 0.429. For the same cell line, the relative viability ([4]; first compound 0.8 µM) was 0.465, the relative viability ([4]; first compound 2.53 µM) was 0.469 and the relative viability ([4]; first compound 8 µM) was 0.431.
EMC-BAC-2 gave a relative viability ([1]; first compound 0.08 µM) of 1.03, a relative viability ([1]; first compound 0.253 µM) of 0.923 and a relative viability ([1]; first compound 0.8 µM) of 0.931. The relative viability ([1]; first compound 2.53 µM) was 0.867, the relative viability ([1]; first compound 8 µM) was 0.841 and the relative viability ([2]; first compound 0.04 µM) was 0.772. It also gave a relative viability ([2]; first compound 0.1265 µM) of 0.723, a relative viability ([2]; first compound 0.4 µM) of 0.696 and a relative viability ([2]; first compound 1.265 µM) of 0.74. The relative viability ([2]; first compound 4 µM) was 0.54, the relative viability ([3]; first compound 0.8 µM) was 1.06 and the relative viability ([3]; first compound 2.53 µM) was 1. It also gave a relative viability ([3]; first compound 8 µM) of 1.03, a relative viability ([4]; first compound 0.08 µM) of 0.499 and a relative viability ([4]; first compound 0.8 µM) of 0.609. It also gave a relative viability ([4]; first compound 2.53 µM) of 0.661 and a relative viability ([4]; first compound 8 µM) of 0.552.
With LK-2 the relative viability ([1]; first compound 0.08 µM) was 1.1, the relative viability ([1]; first compound 0.253 µM) was 0.895 and the relative viability ([1]; first compound 0.8 µM) was 1.12. It also gave a relative viability ([1]; first compound 2.53 µM) of 0.996, a relative viability ([1]; first compound 8 µM) of 0.977 and a relative viability ([2]; first compound 0.04 µM) of 1.3. The relative viability ([2]; first compound 0.1265 µM) was 1.02, the relative viability ([2]; first compound 0.4 µM) was 1.17 and the relative viability ([2]; first compound 4 µM) was 0.83. It also gave a relative viability ([3]; first compound 0.8 µM) of 0.237, a relative viability ([3]; first compound 2.53 µM) of 0.404 and a relative viability ([3]; first compound 8 µM) of 0.358. For the same cell line, the relative viability ([4]; first compound 0.08 µM) was 0.354, the relative viability ([4]; first compound 0.8 µM) was 0.377 and the relative viability ([4]; first compound 2.53 µM) was 0.547. It also gave a relative viability ([4]; first compound 8 µM) of 0.494.
SW 1573 was tested, and the relative viability ([1]; first compound 0.08 µM) was 0.625, the relative viability ([1]; first compound 0.253 µM) was 1.09 and the relative viability ([1]; first compound 0.8 µM) was 1. For the same cell line, the relative viability ([1]; first compound 2.53 µM) was 1.01, the relative viability ([1]; first compound 8 µM) was 1.1 and the relative viability ([2]; first compound 0.04 µM) was 0.852. For the same cell line, the relative viability ([2]; first compound 0.1265 µM) was 0.984, the relative viability ([2]; first compound 0.4 µM) was 0.832 and the relative viability ([2]; first compound 1.265 µM) was 0.563. For the same cell line, the relative viability ([2]; first compound 4 µM) was 0.509, the relative viability ([3]; first compound 0.8 µM) was 0.471 and the relative viability ([3]; first compound 2.53 µM) was 0.711. For the same cell line, the relative viability ([3]; first compound 8 µM) was 0.76, the relative viability ([4]; first compound 0.8 µM) was 0.365 and the relative viability ([4]; first compound 2.53 µM) was 0.376. For the same cell line, the relative viability ([4]; first compound 8 µM) was 0.471.
Work on NCI-H2405 yielded a relative viability ([1]; first compound 0.08 µM) of 1.26, a relative viability ([1]; first compound 0.253 µM) of 1.11 and a relative viability ([1]; first compound 0.8 µM) of 1.1. The relative viability ([1]; first compound 2.53 µM) was 1.36, the relative viability ([1]; first compound 8 µM) was 0.612 and the relative viability ([2]; first compound 0.1265 µM) was 0.783. For the same cell line, the relative viability ([2]; first compound 0.4 µM) was 0.536, the relative viability ([2]; first compound 1.265 µM) was 0.413 and the relative viability ([2]; first compound 4 µM) was 0.217. For the same cell line, the relative viability ([3]; first compound 0.08 µM) was 0.705, the relative viability ([3]; first compound 0.8 µM) was 0.735 and the relative viability ([3]; first compound 2.53 µM) was 0.793. It also gave a relative viability ([3]; first compound 8 µM) of 0.753, a relative viability ([4]; first compound 0.08 µM) of 0.44 and a relative viability ([4]; first compound 0.8 µM) of 0.285. It also gave a relative viability ([4]; first compound 2.53 µM) of 0.385 and a relative viability ([4]; first compound 8 µM) of 0.383.
NCI-H2087 showed a relative viability ([1]; first compound 0.08 µM) of 1.19, a relative viability ([1]; first compound 0.253 µM) of 1.08 and a relative viability ([1]; first compound 0.8 µM) of 1.2. For the same cell line, the relative viability ([1]; first compound 2.53 µM) was 1.07, the relative viability ([1]; first compound 8 µM) was 0.974 and the relative viability ([2]; first compound 0.04 µM) was 0.897. It also gave a relative viability ([2]; first compound 0.1265 µM) of 0.855, a relative viability ([2]; first compound 0.4 µM) of 0.803 and a relative viability ([2]; first compound 1.265 µM) of 0.844. For the same cell line, the relative viability ([2]; first compound 4 µM) was 0.495, the relative viability ([3]; first compound 0.08 µM) was 0.339 and the relative viability ([3]; first compound 0.8 µM) was 0.279. The relative viability ([3]; first compound 2.53 µM) was 0.267, the relative viability ([3]; first compound 8 µM) was 0.292 and the relative viability ([4]; first compound 0.08 µM) was 0.459. For the same cell line, the relative viability ([4]; first compound 0.8 µM) was 0.479, the relative viability ([4]; first compound 2.53 µM) was 0.496 and the relative viability ([4]; first compound 8 µM) was 0.479.
For NCI-H460, the relative viability ([1]; first compound 0.08 µM) was 0.968, the relative viability ([1]; first compound 0.253 µM) was 0.959 and the relative viability ([1]; first compound 0.8 µM) was 0.949. It also gave a relative viability ([1]; first compound 2.53 µM) of 0.952, a relative viability ([1]; first compound 8 µM) of 1.05 and a relative viability ([2]; first compound 0.04 µM) of 0.531. The relative viability ([2]; first compound 0.1265 µM) was 0.549, the relative viability ([2]; first compound 0.4 µM) was 0.697 and the relative viability ([2]; first compound 1.265 µM) was 0.555. For the same cell line, the relative viability ([2]; first compound 4 µM) was 0.41, the relative viability ([3]; first compound 0.08 µM) was 0.379 and the relative viability ([3]; first compound 0.8 µM) was 0.608. The relative viability ([3]; first compound 2.53 µM) was 0.554, the relative viability ([3]; first compound 8 µM) was 0.474 and the relative viability ([4]; first compound 0.08 µM) was 0.335. The relative viability ([4]; first compound 0.8 µM) was 0.72, the relative viability ([4]; first compound 2.53 µM) was 0.564 and the relative viability ([4]; first compound 8 µM) was 0.51.
LOU-NH91 showed a relative viability ([1]; first compound 0.08 µM) of 0.782, a relative viability ([1]; first compound 0.253 µM) of 0.775 and a relative viability ([1]; first compound 0.8 µM) of 0.64. It also gave a relative viability ([1]; first compound 2.53 µM) of 0.771, a relative viability ([1]; first compound 8 µM) of 0.716 and a relative viability ([2]; first compound 0.04 µM) of 0.684. It also gave a relative viability ([2]; first compound 0.1265 µM) of 0.764, a relative viability ([2]; first compound 0.4 µM) of 0.671 and a relative viability ([2]; first compound 1.265 µM) of 0.609. For the same cell line, the relative viability ([2]; first compound 4 µM) was 0.613, the relative viability ([3]; first compound 0.08 µM) was 0.84 and the relative viability ([3]; first compound 0.8 µM) was 0.851. It also gave a relative viability ([3]; first compound 2.53 µM) of 0.832, a relative viability ([3]; first compound 8 µM) of 0.79 and a relative viability ([4]; first compound 0.08 µM) of 0.771. It also gave a relative viability ([4]; first compound 0.8 µM) of 0.787, a relative viability ([4]; first compound 2.53 µM) of 0.867 and a relative viability ([4]; first compound 8 µM) of 0.781.
NCI-H1651 gave a relative viability ([1]; first compound 0.08 µM) of 0.898, a relative viability ([1]; first compound 0.253 µM) of 1.03 and a relative viability ([1]; first compound 0.8 µM) of 0.797. For the same cell line, the relative viability ([1]; first compound 2.53 µM) was 0.782, the relative viability ([1]; first compound 8 µM) was 0.864 and the relative viability ([2]; first compound 0.04 µM) was 1.06. It also gave a relative viability ([2]; first compound 0.1265 µM) of 0.942, a relative viability ([2]; first compound 0.4 µM) of 1.01 and a relative viability ([2]; first compound 1.265 µM) of 1.14. The relative viability ([2]; first compound 4 µM) was 1.06, the relative viability ([3]; first compound 0.08 µM) was 0.586 and the relative viability ([3]; first compound 0.8 µM) was 0.566. It also gave a relative viability ([3]; first compound 2.53 µM) of 0.686, a relative viability ([3]; first compound 8 µM) of 0.501 and a relative viability ([4]; first compound 0.08 µM) of 0.351. The relative viability ([4]; first compound 0.8 µM) was 0.3, the relative viability ([4]; first compound 2.53 µM) was 0.333 and the relative viability ([4]; first compound 8 µM) was 0.344.
